Source: patent US6716836B2, “Non-nucleoside reverse transcriptase inhibitors” (Boehringer Ingelheim (Canada) Ltd., priority 2001, dated 2004)
pEC50, pIC50: −log10 of the molar value.

Experiments:
[1] = target: T1, HIV-1 RT double mutant K103N/Y181C (Human immunodeficiency virus type 1 group M subtype B, UniProt P04585, K690N/Y768C); test: Reverse Transcriptase (RT) assay, double mutant enzyme; format: biochemical
T1 construct: Heterodimeric RT was eluted using a descending gradient; made in house; host or cells: E. coli (inferred; the text describes only wild type and Y181C preparations)
Outline: (§1)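 Cell-free assay with recombinant heterodimeric RT (1.5 nM in diluted enzyme, Tris pH 7.8, 0.05% Chaps), poly r(C)/oligo d(G) template-primer and ^3H-dGTP, 30 min at room temperature. TCA-precipitated DNA counted by scintillation; EDTA background subtracted, percent inhibition calculated.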

[2] = tested on: HIV replication in T-lymphocytes, virus coding for mutant enzyme K103N/Y181C; test: ELISA (p24) assay for activity in cell culture, mutant virus; format: cell-based; conditions: Human immunodeficiency virus 1, T-lymphocyte, read-out: EC50 K103N/Y181C
Experimental: (§2) ELISA Assay for Assessment of Activity in Cell Culture
(§3) Compounds of the invention were tested for their ability to inhibit HIV replication in cell culture. Viruses coding for Wild type and mutant enzymes were used. T-lymphocytes were infected with the virus, infected cells were incubated in the presence of varying amounts of compounds of the invention, and an ELISA assay for the viral protein p24 was used to quantify viral replication. Table 9 lists the results as EC50 (nM).

HIV-1 RT wild type (WT) = target: T2, HIV-1 RT wild type (WT) (Human immunodeficiency virus type 1 group M subtype B, UniProt P04585); test: Reverse Transcriptase (RT) assay, wild type enzyme; format: biochemical
T2 construct: Heterodimeric RT was eluted using a descending gradient; made in house; host or cells: E. coli
Outline: as §1

[3] = tested on: HIV replication in T-lymphocytes, virus coding for wild type enzyme; test: ELISA (p24) assay for activity in cell culture, wild type virus; format: cell-based; conditions: Human immunodeficiency virus 1, T-lymphocyte, read-out: EC50 WT RT
Experimental: as §2, §3

CCN1c2ncc(CCOc3cccc4c3CCS(=O)(=O)N4)cc2C(=O)Nc2c(C)cc(F)nc21 [Compound 602]
> 7.00: pIC50 [1] | pEC50 [2] | pIC50 (HIV-1 RT wild type (WT)) | pEC50 [3]

CCN1c2ncc(CCOc3cccc4c3CCS(=O)(=O)N4CCCC(=O)O)cc2C(=O)N(C)c2cccnc21 [Compound 625]
> 7.00: pIC50 [1] | pEC50 [2] | pIC50 (HIV-1 RT wild type (WT)) | pEC50 [3]
